This assay deals with Steroidogenic factor 1 (Homo sapiens, UniProt Q13285). Description: SF-1 driven luciferase reporter response, dose response, counter-screen for RORA activator project, CHO-K1 cells (AID 695). A general note: A reporter such as luciferase makes a cellular process visible.

One may read the EC50 as the midpoint of the concentration-response curve.

Chain of Steroidogenic factor 1 (Q13285 whole entry): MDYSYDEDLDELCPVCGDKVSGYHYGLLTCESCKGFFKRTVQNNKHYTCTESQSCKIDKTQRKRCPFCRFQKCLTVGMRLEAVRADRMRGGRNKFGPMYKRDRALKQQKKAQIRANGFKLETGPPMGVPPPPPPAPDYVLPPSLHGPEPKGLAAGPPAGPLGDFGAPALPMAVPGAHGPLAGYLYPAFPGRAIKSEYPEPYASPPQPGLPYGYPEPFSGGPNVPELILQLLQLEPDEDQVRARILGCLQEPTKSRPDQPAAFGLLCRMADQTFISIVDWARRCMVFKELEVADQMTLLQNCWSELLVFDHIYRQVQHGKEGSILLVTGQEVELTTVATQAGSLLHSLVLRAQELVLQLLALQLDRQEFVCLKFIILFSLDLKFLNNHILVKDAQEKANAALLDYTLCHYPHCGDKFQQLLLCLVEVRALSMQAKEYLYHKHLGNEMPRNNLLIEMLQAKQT

Consider `CCN(CCCNC(=O)c1cn(CC)c2ccc(S(=O)(=O)N(C)C)cc2c1=O)c1cccc(C)c1` [6-(dimethylsulfamoyl)-1-ethyl-N-[3-(N-ethyl-3-methyl-anilino)propyl]-4-keto-quinoline-3-carboxamide], for which the EC50 is above 99000 nM. Molecule `Cn1c(SCc2ccccc2F)nc2cccnc21` [2-(2-Fluoro-benzylsulfanyl)-3-methyl-3H-imidazo[4,5-b]pyridine] came in with a half-maximal effective concentration (EC50) above 1220 nM. `Oc1coc2ccc(OCc3ccc(F)cc3)cc12` [5-(4-fluorobenzyl)oxycoumaran-3-one] returned an EC50 of 1710 nM. Molecule `CCCCOc1ccc(-c2nnn(CC(=O)NCc3ccco3)n2)cc1` [2-[5-(4-Butoxy-phenyl)-tetrazol-2-yl]-N-furan-2-ylmethyl-acetamide] had an EC50 of 1880 nM. The EC50 values of the last two molecules are within 1.5-fold of each other.

(Values after BindingDB's records for doi:10.7270/Q2028PXQ (The Scripps Research Institute Molecular Screening Center, 2007).)
